From PubChem BioAssay (NCI) come the findings set out here.

Among the test systems are DLD-1 colon; DMS 114 small cell lung; HOP-18 NSCLC; KM20L2 colon; RXF-631 renal; SNB-78 CNS; XF 498 CNS; LXFL 529 NSCLC; MDA-N; P388 leukemia; P388/ADR leukemia.
Common to all, as to assay: NCI tumour cell line growth inhibition, 48 h

The structures appear in SMILES notation. Where “and” joins values, the source holds several entries; their conditions need not be identical. Equal entries are not always repeated.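 Five concentrations, 48 hours, 96-well plates. Abbreviation: GI50, concentration required for 50% inhibition of growth. At the TGI there is no net growth.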

On to `O=c1[nH]nc2ccccc2c1Cl`, for which the TGI with DLD-1 colon is 22.8 µM; in the test on DMS 114 small cell lung it was 18.9 µM; in the test with HOP-18 NSCLC, 29.1 µM; in the test on KM20L2 colon it was 29.5 µM; in the test on RXF-631 renal, 28.4 µM; in the test on SNB-78 CNS it was 41.1 µM. In the test on XF 498 CNS, this compound gave a TGI of 28.1 µM.
In the case of `CN(C)CCNC(=O)c1ccc(C(=O)NCCN(C)C)c2nc3ccccc3cc12`, the TGI in the test on DLD-1 colon was 5.28 µM; in the test on DMS 114 small cell lung, 2.16 µM; in the test with HOP-18 NSCLC, 25.4 µM; in the test on KM20L2 colon, 10.3 µM; in the test on LXFL 529 NSCLC, 12.3 µM; in the test with RXF-631 renal, 14.8 µM. The compound further yielded a TGI in the test on SNB-78 CNS of 12.7 µM.
`Nc1ccn(CCO)c(=O)n1`: the TGI in the test with DLD-1 colon, in the test on DMS 114 small cell lung, in the test with HOP-18 NSCLC, in the test on KM20L2 colon, in the test with LXFL 529 NSCLC and with SNB-78 CNS was above 100 µM each time.
In the case of `CC(=O)Nc1ccc(/C=N\N2C(=O)c3ccccc3C2=O)cc1`, the TGI in the test with DLD-1 colon, in the test on DMS 114 small cell lung, in the test on HOP-18 NSCLC, with KM20L2 colon, with LXFL 529 NSCLC and in the test with SNB-78 CNS was above 100 µM throughout. Besides, the TGI with XF 498 CNS was above 100 µM.
For the compound `OCC(O)C(OC1OC(CO)C(O)C(O)C1O)c1nn(-c2ccccc2)c2nc3cc(Cl)c(Cl)cc3cc12` (stereo not drawn), the TGI with DLD-1 colon, in the test on KM20L2 colon, in the test on LXFL 529 NSCLC, in the test on RXF-631 renal, in the test on SNB-78 CNS and in the test on XF 498 CNS was above 100 µM each time.
In the case of `O=C1/C(=C/c2ccccc2F)CNC/C1=C\c1ccccc1F`, in the test on MDA-N, the GI50 is 0.485 µM and the TGI turned out to be 1.71 µM.
With `O=c1c2cccc3cccc(c4oc5c6cccc7cccc(c(=O)c5c14)c76)c32`, the TGI in the test with DLD-1 colon was 30.2 µM; in the test with DMS 114 small cell lung, 18.5 µM; with HOP-18 NSCLC, 24.8 µM; in the test on KM20L2 colon, 26.2 µM; in the test on LXFL 529 NSCLC, 15.8 µM; in the test on RXF-631 renal, 19.3 µM. The TGI with SNB-78 CNS stood at 21.2 µM.
`CN(CC(=O)O)c1ccc(/C=C/c2ccnc3ccccc23)cc1` yielded a TGI with MDA-N of 53.9 µM.
On to `CCCCCCCCC(=O)N(C)C1C2CN3CCC(O2)C13` (stereo not drawn), for which the TGI in the test on DLD-1 colon, in the test with DMS 114 small cell lung, in the test on HOP-18 NSCLC, in the test with KM20L2 colon, in the test with LXFL 529 NSCLC and in the test with SNB-78 CNS was above 100 µM throughout.
Turning to `O=C1/C(=C/c2ccc3c(c2)OCO3)CCC1CN1CCOCC1` (stereo not drawn), the TGI with DLD-1 colon turned out to be 6.31 µM; in the test on DMS 114 small cell lung, 15.6 µM; in the test with HOP-18 NSCLC, 31.4 µM; with KM20L2 colon, 36.9 µM; with LXFL 529 NSCLC, 7.68 µM; with MDA-N it was 4.07 µM. The TGI came out at 44.7 µM with RXF-631 renal and 41.8 µM with SNB-78 CNS.
For `N#C/C(=C1\NN=C(N)C(c2ccc(Cl)cc2)=C1O)c1ccc(Cl)cc1`, the TGI in the test on DLD-1 colon, in the test on DMS 114 small cell lung, in the test on HOP-18 NSCLC, in the test with KM20L2 colon, with LXFL 529 NSCLC and with SNB-78 CNS was above 100 µM each time. The TGI in the test with XF 498 CNS is above 100 µM.
As to `Cc1cc(C)c2c(c1)Nc1ccccc1P2c1ccccc1` (stereo not drawn), the TGI in the test on DLD-1 colon is 65.7 µM; in the test on DMS 114 small cell lung, above 100 µM; with KM20L2 colon it was 74.7 µM; with LXFL 529 NSCLC, above 100 µM; with SNB-78 CNS, above 100 µM; in the test with XF 498 CNS it was 33.3 µM.
Regarding `COc1ccc(C2=NN(C(=O)COc3ccc(Cl)cc3)C(O)(c3ccc(Cl)cc3)C2)cc1` (stereo not drawn), the TGI in the test with DLD-1 colon, in the test on KM20L2 colon, in the test on LXFL 529 NSCLC, with RXF-631 renal, in the test with SNB-78 CNS and in the test on XF 498 CNS was above 100 µM throughout.
In the case of `c1cc(CCN2CCCCC2)ccn1`, the TGI in the test with MDA-N is above 100 µM.
Consider `CCOC(=O)C1=C(NNC(=O)Cc2ccccc2)CSC1=Nc1ccccc1`, for which the TGI with DLD-1 colon, in the test on HOP-18 NSCLC, with KM20L2 colon, with LXFL 529 NSCLC, in the test with RXF-631 renal and with SNB-78 CNS was above 100 µM throughout. For the same compound, the TGI in the test on XF 498 CNS is above 100 µM.
As to `Fc1cccc2cc3ccc4cccc5ccc(c12)c3c45`, the TGI is above 100 µM in the test on DLD-1 colon; above 100 µM in the test with DMS 114 small cell lung; 12.8 µM with HOP-18 NSCLC; above 100 µM in the test on KM20L2 colon; above 100 µM with LXFL 529 NSCLC; above 100 µM in the test with RXF-631 renal. This compound came in with a TGI with XF 498 CNS above 100 µM.
As to `Cc1cccc(NC(=O)c2cc3cc(N=Nc4ccccc4Cl)ccc3oc2=O)c1`, the TGI with DLD-1 colon is above 100 µM; in the test with DMS 114 small cell lung, 66.8 µM; in the test with HOP-18 NSCLC, above 100 µM; in the test with KM20L2 colon it was above 100 µM; in the test with LXFL 529 NSCLC, above 100 µM; with RXF-631 renal, above 100 µM. For the same compound, the TGI with SNB-78 CNS was above 100 µM; in the test with XF 498 CNS it was 64.5 µM.
In the case of `COC(C(=O)C(O)C(C)O)C1Cc2cc3cc(OC4CC(OC(C)=O)C(OC5CC(O)C(OC)C(C)O5)C(C)O4)cc(O)c3c(O)c2C(=O)C1OC1CC(OC2CC(OC3CC(C)(O)C(OC(=O)C(C)C)C(C)O3)C(O)C(C)O2)C(O)C(C)O1` (stereo not drawn), the GI50 in the test with DLD-1 colon was 0.298 µM and 0.0325 µM; with LXFL 529 NSCLC, 0.0174 µM; with XF 498 CNS, 0.00637 µM and 0.00134 µM. Besides, the TGI is 8.61 µM and > 27.3 µM with DLD-1 colon; 0.084 µM and 0.017 µM and 0.0165 µM with DMS 114 small cell lung; 0.124 µM with LXFL 529 NSCLC; 0.252 µM with MDA-N; 0.237 µM and 0.0293 µM in the test on P388 leukemia; 75 µM and > 100 µM with P388/ADR leukemia.
Turning to `Cc1ccc2c(c1C)-c1c(ccc(C)c1C)C(=O)C2=O`, the TGI with MDA-N turned out to be 0.348 µM.
On the same count and under the same terms, the result for `C=C1CC2(C[C@@H](c3ccccc3)O[C@@H](c3ccccc3)C2)OC1=O` (stereo partly drawn) reads 5.76 µM.
With `CC1CC2C(=O)N(c3ccccc3)C(=O)C2c2c1c1ccccc1n2Cc1ccccc1` (stereo not drawn), the TGI with DLD-1 colon, in the test on DMS 114 small cell lung and with LXFL 529 NSCLC was above 100 µM throughout.
